From US12331071B2, “Bile acid derivative salt, crystal structure thereof, preparation method therefor and use thereof” (XI'AN BIOCARE PHARMA LTD., priority 2020, dated 2025) come the findings set out here.

Each structure is given as a SMILES string. Counter-ions that a name gives are not always drawn.

A short description of data set [1]: Dynamic vapor sorption (DVS) hygroscopicity analysis. It is filed as physicochemical. Here is the method:
The obtained solid form of the salt was analyzed by dynamic vapor sorption (DVS), using a dynamic vapor sorption analyzer with a model IGA Sorp (Hidentity Isochema). The samples are measured in gradient mode and tested over a humidity range of 0% to 90% with 10% humidity increments for each gradient.
The compound has strong hygroscopicity and is not conducive to preservation. The obtained salt solid form was analyzed by using dynamic vapor sorption (DVS). The hygroscopicity comparison between the hydrochloride salt crystalline form A and the mesylate salt crystalline form C is compared.

A short description of data set [2]: Stability of crystalline form during thermal treatment and grinding (XRPD). It is filed as physicochemical. Here is the method: The crystalline form A was heated to 100° C. through programmed temperature or kept at 80° C. for 24 h in DSC.
A certain amount of hydrochloride salt crystalline form A was added to a mortar and ground at room temperature for 5 minutes.

In data set [3] the test system is 17α-Ethinylestradiol (E2-17a) induced cholestasis in rats. The experiment in a line: 17α-ethinylestradiol (E2-17α) induced cholestasis in rats. It is filed as in vivo. Here is the method:
Experimental method: E2-17α was administered by subcutaneous injection in the neck. The test compounds were administered by gavage for 7 days after modeling. After the last day of administration, the rats were fasted but had access to water. The experiment was performed on the next day, and treatment was performed after 24 h. The rats were anesthetized by intraperitoneal injection of 20% urethane (7 ml/kg). After anesthesia, the rats were fixed on a rat board to make a median abdominal incision from the xiphoid process of the upper abdomen downward, with a 3-4 cm incision. The common bile duct was isolated. A PE-10 polyethylene catheter (inner diameter: 0.28 mm, outer diameter: 0.61 mm) was used for intubation operation of the bile ducts. During the operation, the body […] was maintained between 37° C. and 38° C. with warm lamps and air conditioners to prevent changes in bile flow rate at low temperature. After the intubation was completed, the skin was sutured to prevent the water evaporation from the abdominal cavity. The other end of the bile duct cannula was drawn out and flowed into a fixed 0.2 mL collection tube, to consecutively perform collection every 15 min for 8 times.
Before the experiment, the weight of the bile collection tube was accurately weighed and recorded as B1. After the bile collection was completed in the experiment, the total weight of the bile and the collection tube was weighed and recorded as A2. The weight of bile in the tube was calculated by subtracting B1 from A2, and converted into volume according to 1 g/mL. The amount of bile secretion of rats in each group was expressed as mean±standard deviation (Mean±S.D). Bile Flow Rate (μL/Kg/Min)=(A2−B1)×1000000/Body Weight
The blood samples were allowed to stand for 2 h at room temperature, and centrifuged at 4000 rpm for 15 min. The serum was routinely separated to detect ALT, AST, and ALP. The left serum was aliquoted and frozen at −20° C. for subsequent detection.

Data set [4] deals with AMLN diet-induced NASH in ob/ob mice. As to the kind of experiment: AMLN diet-induced NASH in ob/ob mice. It is filed as in vivo. The procedure:
Test method: (1) C57 mice and ob/ob mice were adaptively reared for 1 week. (1) The C57 mice were given LFD diet (normal mouse group), and the ob/ob mice were divided into two groups: (2) 15 mice were given LFD diet (blank control group), and the rest were given AMLN diet (containing 40 kcal % fat, 20 kcal % fructose and 2% cholesterol) for 14 weeks. (2) Sampling for pathology detection: C57+LFD diet group (n=3), ob/ob+ AMLN diet group (n=3), liver lesions were evaluated according to NAFLD activity score to estimate the degree of model construction; the mice in the ob/ob+ AMLN diet group were tested for fasting blood glucose (FBG); and blood was collected from the eye socket. The serum was separated, and ALT and insulin (INS) in the serum were detected. (3) Insulin resistance (HOMA-IR) was calculated according to HOMA-IR═INS(μ/mL)×FBG(mM)/22.5.

The mark [5] stands for this setting: AMLN diet-induced Lep^ob/Lep^ob mice NASH model.

In the case of `CC[C@@H]1C2C[C@H](O)CC[C@]2(C)C2CC[C@@]3(C)C(CC[C@@H]3[C@H](C)CCO[P@@]3(=O)OCC[C@@H](c4ccncc4)O3)C2[C@@H]1O` (stereo partly drawn) [hydrochloride salt crystalline form A], the “Hygroscopicity at low humidity” value in data set [1] (relative humidity lower than 75%) is listed as “small”. Also, the “Hygroscopicity (DVS results)” value in data set [1] (relative humidity of 80%) is reported as “hygroscopicity was 3.569%”. For the same compound, the “overall hygroscopicity, compared between salt forms” value in data set [1] (versus mesylate salt crystalline form C) is “lower than that of mesylate salt crystalline form C”. For the same compound, the XRPD after grinding result in data set [2] (ground in a mortar at room temperature for 5 minutes) is listed as “main diffraction peaks of the obtained samples have not changed”. The “XRPD after thermal treatment” value in data set [2] (heated to 100° C. through programmed temperature or kept at 80° C. for 24 h in DSC) is listed as “main diffraction peaks of the obtained samples have not change”.
In the case of `CC[C@@H]1C2C[C@H](O)CC[C@]2(C)C2CC[C@@]3(C)C(CC[C@@H]3[C@H](C)CCO[P@@]3(=O)OCC[C@@H](c4ccncc4)O3)C2[C@@H]1O` (stereo partly drawn) [hydrochloride salt of Compound 1], the “strength for promoting bile excretion, compared with the E2-17α group” value in data set [3] (gavage for 7 days) is “significantly increased”. For the same compound, the “effect of promoting bile excretion, compared with Compound 1” value in data set [3] (gavage for 7 days, hydrochloride salt prepared in Example 3) was “superior effect of promoting bile excretion over Compound 1”. Moreover, the “biliary excretion amount after 120 minutes” value in data set [3] (versus model group (E2-17α group)) was “still higher than that in the model group”. In data set [4] (setting [5]), the hepatocyte ballooning result is given as “reduce” and the intralobular inflammation entry is given as “reduce”. Besides, in data set [4] (AMLN diet-induced Lep^ob/Lep^ob mouse NASH model), the “total score of NASH model” value is given as “significantly reduce”. Also, in data set [4] (NASH mice), the “level of ALT in the serum” value is on record as “significantly reduce”, the “level of AST in the serum” value was “significantly reduce” and the liver fibrosis entry was “significantly reduce”.
Turning to `CC[C@@H]1C2C[C@H](O)CC[C@]2(C)C2CC[C@@]3(C)C(CC[C@@H]3[C@H](C)CCO[P@@]3(=O)OCC[C@@H](c4ccncc4)O3)C2[C@@H]1O.CS(=O)(=O)O` (stereo partly drawn) [mesylate salt crystalline form C], the “solid state (XRPD) after DVS” value in data set [1] (after moisture absorption) is on record as “changes to an amorphous form”.
